Results taken from patent US4486429A, “Amino derivatives of 4-phenyl 4-oxobuten-2-oic acid, pharmaceutical compositions containing them, and methods for preparing and therapeutically using them” (Roussel Uclaf, priority 1981, dated 1984).

Assays:
stomach ulcers = experiment: Determination of the anti-ulcer activity (stress ulcer, rats); assay type: in vivo; details: female rats, stress and cold (8° C., two hours), dose 10 mg/kg by esophageal tube two hours before
Method: (2) Determination of the anti-ulcer activity
The technique consists in inducing stomach ulcers by stress in rats (stress and cold). The technique used is described by E. C. SENAY and R. J. LEVINE, Proc. Soc. Exp. Biol. 124, 1221 (1967).
Female rats weighing about 150 g (5 animals per lot) which have fasted for 48 hours with water ad libitum and glucose solution for 8 hours were used. By an esophageal tube, the animals were administered the test compound, or a solution of 0.5% carboxymethyl cellulose solution for the control animals. Two hours later, the animals were bundled in a jacket of netting. Their paws were bound and the entire unit was placed in a refrigerator at 8° C. for two hours. The rats were released and killed with ether.
Their stomachs were removed, opened along the greater curvature and examined by binocular magnifier. The seriousness of ulceration was clasified from 0 to 3 for each stomach.
For each lot of rats the average intensity of the ulcerations was calculated. The degree of ulceration for control and test animals was determined and the variation expressed in percentage.

gastric secretions = experiment: Determination of the anti-gastric secretion activity (Shay technique, pylorus ligation, rats); assay type: in vivo; details: pylorus ligated, dose 10 mg/kg, intraduodenal, 3 hours, total acidity of gastric juice
Method: (1) Determination of the anti-gastric secretion activity
The technique used is described by H. SHAY et al. in Gastroenterology 5, 43, 1945.
Male rats were used having a weight of about 200 g each (10 animals per lot), and kept without food for 48 hours but enjoying ad libitum 8% glucose solution. After the rats were slightly anesthetized with ether the pylorus of each was ligated. At the end of the operation, the product to be tested was administered intraduodenally in different doses or, for the control animals 0.5% carboxymethyl cellulose solution was administered, whereupon the abdominal incision is sutured.
Three hours later, the animals were sacrificed and their stomachs removed after ligating the esophagus. The gastric juice was removed and centrifuged. The volume of gastric juice obtained was then measured and the total acidity of the gastric juice was determined by titrating a […] of gastric juice to a pH of 7 by means of 1/10 N aqueous sodium hydroxide solution.
The percentages of variation in total acidity of the gastric secretions between control and test animals were calculated.

[1] = Determination of the acute toxicity (LD50, oral, mice); details: mouse, in vivo, oral administration
Method: (3) Determination of the acute toxicity
The LD50 was evaluated after oral administration of the product to mice.

| Structure (SMILES) | Anti-ulcer activity (% variation referred to the controls): Ulceration (stomach ulcers) | Anti-secretion activity (% variation referred to the controls): Acid Concentration (gastric secretions) | LD50 [1] |
| --- | --- | --- | --- |
| CCOC(=O)Nc1ccc(C(=O)/C=C/C(=O)O)cc1 [Example 1, (E) 4-(4-carbethoxyaminophenyl)-4-oxobuten-2-oic acid] | -41% | -55% | > 1000 mg/kg |
| CN(C)c1ccc(C(=O)/C=C/C(=O)O)cc1 [Example 4, (E) 4-(4-N,N-dimethylaminophenyl) 4-oxobuten-2-oic acid] | -61% | -58% | 750 mg/kg |
